# Measurements: patent US20060069157A1, “Method of ameliorating or abrogating the effects of a neurodegenerative disorder, such as Huntington's disease, by sodium butyrate chemotherapy” (U.S. DEPARTMENT OF VETERANS AFFAIRS, priority 2004, published 2006)
# Marks after values point to notes of the source that are not given here.
# Legend:
# [1] = test system: R6/2 transgenic mouse model of HD; assay: Rotarod motor performance in R6/2 mice; format: in vivo; details: at 90 days, vs PBS-treated R6/2 mice
# Experimental: Intraperitoneal Dosing: Based upon previous studies (Egorin et al., 1999), a dose response study was performed, treating groups of wild type mice (n=10) and littermate R6/2 mice (n=20) with 100, 200, 400, 600, 1,200, 5,000, and 10,000 mg/kg daily intraperitoneal injection (100 Êl) of sodium butyrate (Acros Organics/Fisher Scientific) dissolved in PBS and made fresh daily. Control groups were treated with PBS injection or untreated. Approximately 240 mice were used for behavioral and survival analyses.
# Clinical Assessment: Both motor performance and body weight were measured throughout the study. Training sessions were given on days 21 and 22 to acclimate the mice to the rotarod apparatus (Columbus Instruments, Columbus, Ohio). Motor performance (constant rotation at 16 rpm) was assessed weekly from 23-63 days of age and twice weekly from 63 days of age in the sodium butyrate-treated, PBS-treated R6/2 mice, and wild type littermate control mice. Three 60 sec trials were given during each session and averaged. Body weights were recorded twice weekly at the same time of day in all groups.
# Statistics: The data are expressed as the mean+standard error of the mean. Statistical comparisons of rotarod, weight data, and histology data were compared by ANOVA or repeated measures ANOVA. Survival data was analyzed by the Kaplan-Meier survival curves.
# Sp1 = details: wild type B6CBA mice at 8 weeks of age after 2 weeks of treatment (Ryu, 2003a); cited from earlier work
# [2] = test system: mRNA expression in R6/2 striatum and cortex; assay: Microarray gene expression analysis (U74Av2) of striatum and cortex; format: in vivo, mouse; design: key to Array, NaBu Txd R6/2 vs R6/2: I = increased; D = decreased; NC = no change
# Experimental: Microarray Gene Expression Analysis: Beginning at six weeks of age, four mice were treated for 2 weeks with daily intraperitoneal injections (1.2 g/kg) of sodium butyrate. Mice were euthanized within 60 minutes of the last injection and cortical and striatal brain tissues were dissected separately and snap frozen on dry ice. In parallel, samples from four untreated R6/2 and four wild-type mice were collected in the same manner. One microarray sample was prepared from 10 Êg of total RNA from each tissue and hybridized to one U74Av2 array (Affymetrix). Four independent pair-wise comparisons were performed using MAS 5.0 software (Affymetrix) to evaluate gene expression changes between sodium butyrate-treated R6/2 and untreated R6/2 animals and between untreated R6/2 and untreated wild-type animals. Difference calls were scored, and only mRNAs that received difference calls in the same direction (increased or decreased) in at least 3 of the 4 pair-wise comparisons were included for presentation in the present study.
# [3] = test system: MKP-1, α-globin, β-globin, preproenkephalin mRNA; assay: Real-time PCR of brain mRNAs; format: in vivo, mouse; details: Striatum, percentage of untreated R6/2, normalized to β-actin
# Experimental: Real-time PCR: Reverse transcription of 1 Êg total RNA was conducted with a SuperScript™ First-Strand Synthesis System for RT-PCR (Invitrogen) using random hexamer primers per the manufacturer's instructions. Quantitative real-time PCR studies utilized a Bio-Rad iCycler to follow the amplification of cDNA products by using SYBR_ Green PCR Master Mix (Applied Biosystems) through 50 PCR cycles (95_C for 30 s, 57_C for 1 min, 72_C for 1.5 min). Specific amplification of the target sequences was determined by melt curve analysis and DNA sequencing. Primer pair sequences were as follows: Preproenkephalin (XM—131313) GTGTCCAGGCCCGAGTTC and […]; MKP-1 (NM_013642) […] and […]; _-globin (NM_008218) CCACCCTGCCGATTTCA and CCGCAGMGGCAGCTTAAC; _-globin (NM_008220) […] and CCCAGCACAATCACGATCA; _-actin (X03672) AGGTATCCTGACCCTGAAG and […]. Expression of the mRNAs of interest was calculated using the equation: V=(1+E reference)(C t reference)/(1+E target) (C t target) to correct for potential differences in RNA input and PCR primer efficiencies (Livak and Schmittgen, 2001). V=relative value of target gene normalized to reference (_-actin), E=primer efficiency, C t=threshold crossing cycle number. Differences between genotype and treatment groups were assessed using an unpaired, two-tailed Student's t-test.
# [4] = Angiomotin like 2 mRNA, AI854404, 160131_at, Cortex, treated vs untreated R6/2
# [5] = Arginine vasopressin mRNA, M88354, 93381_at, Cortex, treated vs untreated R6/2
# [6] = DNAJ/Heat shock protein 40 mRNA, AB028272, 96254_at, Striatum, treated vs untreated R6/2
# [7] = Dynamin mRNA, L31397, 103031_g_at, Cortex, treated vs untreated R6/2
# [8] = Erythroid differentiation regulator mRNA, AJ007909, 98525_f_at, Striatum, treated vs untreated R6/2
# [9] = Hemoglobin, alpha adult chain 1 mRNA, V00714, 94781_at, Striatum + Cortex, treated vs untreated R6/2
# [10] = Hemoglobin, beta 1 mRNA, V00722, 103534_at, Cortex, treated vs untreated R6/2
# [11] = Hemoglobin, beta adult major chain mRNA, J00413, 101869_s_at, Striatum + Cortex, treated vs untreated R6/2
# [12] = Heterogeneous nuclear ribonucleoprotein A1 mRNA, AI183202, 92724_at, Striatum, treated vs untreated R6/2
# [13] = MAP kinase phosphatase-1 (MKP-1) mRNA, X61940, 104598_at, Striatum + Cortex, 1.2 g/kg i.p. 2 weeks vs untreated R6/2
# [14] = MAP kinase phosphatase-3 (MKP-3) mRNA, AI845584, 93285_at, Cortex, treated vs untreated R6/2
# [15] = Microtubule-associated protein tau mRNA, M18775, 102431_at, Cortex, treated vs untreated R6/2
# [16] = Protein phosphatase 1B, beta isoform mRNA, D45859, 101836_at, Striatum, treated vs untreated R6/2
# [17] = Transthyretin mRNA, D00073, 95350_at, Striatum, treated vs untreated R6/2
# [18] = Unknown mRNA, AA711516, 96302_at, Striatum, treated vs untreated R6/2
# [19] = Unknown mRNA, AI153421, 96215_f_at, Striatum, treated vs untreated R6/2
# [20] = Unknown mRNA, AI451558, 97161_at, Striatum, treated vs untreated R6/2
# [21] = Unknown mRNA, AV330064, 161114_i_at, Cortex, treated vs untreated R6/2
# [22] = Unknown mRNA, C79248, 94689_at, Striatum + Cortex, treated vs untreated R6/2
# [23] = c-fos oncogene mRNA, V00727, 160901_at, Cortex, treated vs untreated R6/2
smiles,measurement,setting,value
CCCC(=O)[O-].[Na+] [sodium butyrate],percentile increase in rotarod performance,[1]; 400 mg/kg,24.0%
same,percentile increase in rotarod performance,[1]; 600 mg/kg,27.5%
same,percentile increase in rotarod performance,"[1]; 1,200 mg/kg",34.9%
same,Sp1 acetylation,Sp1,significantly augmented
same,% Change calls,[2]; [4],100%
same,Direction of change,[2]; [4],Increase
same,% Change calls,[2]; [5],75%
same,Direction of change,[2]; [5],Increase
same,% Change calls,[2]; [6],75%
same,Direction of change,[2]; [6],Increase
same,% Change calls,[2]; [7],75%
same,Direction of change,[2]; [7],Decrease
same,% Change calls,[2]; [8],100%
same,Direction of change,[2]; [8],Decrease
same,% Change calls,[2]; [9],100%
same,Direction of change,[2]; [9],Increase
same,% Change calls,[2]; [10],75%
same,Direction of change,[2]; [10],Increase
same,% Change calls,[2]; [11],100%
same,Direction of change,[2]; [11],Increase
same,% Change calls,[2]; [12],75%
same,Direction of change,[2]; [12],Decrease
same,% Change calls,[2]; [13],100%
same,Direction of change,[2]; [13],Increase
same,% Change calls,[2]; [14],75%
same,Direction of change,[2]; [14],Increase
same,"Array, NaBu Txd R6/2 vs R6/2","[2]; MKP-1 mRNA, Cortex",I
same,"Array, NaBu Txd R6/2 vs R6/2","[2]; MKP-1 mRNA, Striatum",I
same,% Change calls,[2]; [15],75%
same,Direction of change,[2]; [15],Decrease
same,"Array, NaBu Txd R6/2 vs R6/2","[2]; Preproenkephalin mRNA, Striatum",NC
same,% Change calls,[2]; [16],75%
same,Direction of change,[2]; [16],Increase
same,% Change calls,[2]; [17],75%
same,Direction of change,[2]; [17],Decrease
same,% Change calls,[2]; [18],75%
same,Direction of change,[2]; [18],Decrease
same,% Change calls,[2]; [19],75%
same,Direction of change,[2]; [19],Decrease
same,% Change calls,[2]; [20],75%
same,Direction of change,[2]; [20],Decrease
same,% Change calls,[2]; [21],75%
same,Direction of change,[2]; [21],Decrease
same,% Change calls,[2]; [22],75%
same,Direction of change,[2]; [22],Decrease
same,% Change calls,[2]; [23],100%
same,Direction of change,[2]; [23],Increase
same,number of mRNA changes,"[2]; treated R6/2 vs untreated R6/2, striatum and cortex, 1.2 g/kg i.p. 2 weeks",20
same,"Array, NaBu Txd R6/2 vs R6/2","[2]; α-globin mRNA, Cortex",I
same,"Array, NaBu Txd R6/2 vs R6/2","[2]; α-globin mRNA, Striatum",I
same,"Array, NaBu Txd R6/2 vs R6/2","[2]; β-globin mRNA, Cortex",I
same,"Array, NaBu Txd R6/2 vs R6/2","[2]; β-globin mRNA, Striatum",I
same,"PCR, NaBu Txd R6/2 vs R6/2","[3]; MKP-1 mRNA, p<0.05",181%^a
same,"PCR, NaBu Txd R6/2 vs R6/2",[3]; Preproenkephalin mRNA,101%
same,"PCR, NaBu Txd R6/2 vs R6/2","[3]; α-globin mRNA, p<0.01",206%^c
same,"PCR, NaBu Txd R6/2 vs R6/2","[3]; β-globin mRNA, p<0.02",215%^b
